For 8 molecules, GI50 and TGI results are on record in PubChem BioAssay (NCI).

Usually GI50 stands for the concentration giving 50% growth inhibition. Broadly, the TGI is the concentration giving total growth inhibition. Higher therefore signals lower sensitivity of the cells.

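In this assay, cells in 96-well plates receive the compound at five concentrations for 48 hours. Endpoints are linearly interpolated between the surrounding concentrations. Here, GI50 denotes the concentration required for 50% inhibition of growth. TGI: concentration producing complete growth inhibition.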

Some test systems named below: NCI-H226 lung; HCT-116 colon; MCF7 breast; LOX IMVI melanoma; SR leukemia; 786-0 renal; NCI/ADR-RES ovarian; RPMI-8226 leukemia; HT29 colon; ACHN renal.
Common to all, as to experiment: DTP human tumour cell line panel, 48 h

In the case of `O=[N+]([O-])c1ccc(N/N=C/c2c(O)ccc3ccccc23)nc1`, the GI50 in the assay on NCI-H226 lung is 93.8 µM; with HCT-116 colon, 3160 nM; in the assay with MCF7 breast it was 1910 nM; with LOX IMVI melanoma it was 1260 nM; in the assay on SR leukemia it was 665 nM; with 786-0 renal it was 13.3 µM. Besides, the GI50 is 1820 nM in the assay with NCI/ADR-RES ovarian, more than 100 µM with RPMI-8226 leukemia, more than 100 µM with HT29 colon and 775 nM with ACHN renal. Further, the TGI in the assay with NCI-H226 lung, in the assay on HCT-116 colon, in the assay on MCF7 breast, in the assay on LOX IMVI melanoma, with SR leukemia and in the assay with 786-0 renal was more than 100 µM each time. Further, the TGI with NCI/ADR-RES ovarian, in the assay on RPMI-8226 leukemia, with HT29 colon and with ACHN renal was more than 100 µM in each case.

As to `COC(=O)c1sc(C(=O)OC)c2c1CSC2`, the TGI with NCI-H226 lung, with HCT-116 colon, with MCF7 breast, in the assay on LOX IMVI melanoma, in the assay on SR leukemia and with 786-0 renal was more than 100 µM throughout. Moreover, the total growth inhibition concentration (TGI) with NCI/ADR-RES ovarian, in the assay on RPMI-8226 leukemia, in the assay with HT29 colon and in the assay on ACHN renal was more than 100 µM in each case.

Consider `COc1ccccc1NC(=O)n1nc(N)c2ccccc21`, for which the GI50 was more than 74.7 µM in the assay with NCI-H226 lung; more than 71700 nM with HCT-116 colon; 84.2 nM in the assay with MCF7 breast; 82000 nM with LOX IMVI melanoma; 92400 nM in the assay on SR leukemia; more than 84 µM in the assay on 786-0 renal. The GI50 with NCI/ADR-RES ovarian was 87400 nM; in the assay with RPMI-8226 leukemia, 48.7 µM; with HT29 colon, more than 73.4 µM; in the assay on ACHN renal, more than 81700 nM. The TGI in the assay with NCI-H226 lung was more than 100 µM; in the assay on HCT-116 colon it was more than 100 µM; with MCF7 breast it was 4.32 µM; in the assay on LOX IMVI melanoma, more than 100 µM; in the assay with SR leukemia it was more than 100 µM; in the assay with 786-0 renal it was more than 100 µM. Besides, the concentration for total growth inhibition (TGI) in the assay with NCI/ADR-RES ovarian, in the assay with RPMI-8226 leukemia, with HT29 colon and in the assay on ACHN renal was more than 100 µM each time.

`CCOC(=O)C(=Cc1ccccc1[N+](=O)[O-])C(=O)OCC`: the GI50 is 3.26 µM with NCI-H226 lung; 2530 nM in the assay on HCT-116 colon; 2520 nM in the assay with MCF7 breast; 1580 nM with LOX IMVI melanoma; 2070 nM in the assay with SR leukemia; 3.85 µM in the assay on 786-0 renal. Besides, the GI50 in the assay on NCI/ADR-RES ovarian was 2590 nM; in the assay with RPMI-8226 leukemia, 3.69 µM; in the assay with HT29 colon, 3.27 µM; with ACHN renal it was 2060 nM. The TGI in the assay on NCI-H226 lung turned out to be 12.8 µM; with HCT-116 colon, 7.56 µM; in the assay on MCF7 breast, 14.2 µM; with LOX IMVI melanoma, 3.51 µM; with SR leukemia, 30.1 µM; in the assay with 786-0 renal, 11.8 µM. Besides, the TGI in the assay on NCI/ADR-RES ovarian came to 7.8 µM; with RPMI-8226 leukemia it was 18.3 µM; with HT29 colon it was 9.39 µM; in the assay on ACHN renal it was 4.31 µM.

As for `Cc1sc(C)c(Cc2c(C)sc(C)c2CCl)c1CCl`, the GI50 with NCI-H226 lung is more than 100 µM; in the assay on HCT-116 colon, more than 100000 nM; in the assay on MCF7 breast, more than 100000 nM; in the assay with LOX IMVI melanoma, more than 100000 nM; in the assay with SR leukemia, more than 100000 nM; in the assay on 786-0 renal, more than 100 µM. The GI50 was more than 100000 nM in the assay on NCI/ADR-RES ovarian, more than 100 µM in the assay with RPMI-8226 leukemia, more than 100 µM in the assay on HT29 colon and more than 100000 nM in the assay on ACHN renal. The TGI with NCI-H226 lung, in the assay on HCT-116 colon, in the assay with MCF7 breast, in the assay with LOX IMVI melanoma, with SR leukemia and in the assay on 786-0 renal was more than 100 µM each time. Also, the TGI with NCI/ADR-RES ovarian, with RPMI-8226 leukemia, with HT29 colon and in the assay on ACHN renal was more than 100 µM in each case.

As to `COCCOC(=O)NC(=O)Nc1ccc(/C(=N/O)c2ccc(Cl)cc2)cc1`, the GI50 with NCI-H226 lung is 1.14 µM; in the assay on HCT-116 colon, 112 nM; in the assay with MCF7 breast it was 98.9 nM; in the assay on LOX IMVI melanoma, 144 nM; in the assay on SR leukemia it was 54.6 nM; in the assay with 786-0 renal it was 0.249 µM. Further, the GI50 in the assay with RPMI-8226 leukemia is 0.129 µM; with HT29 colon, 0.108 µM; with ACHN renal, 186 nM. Besides, the TGI in the assay with NCI-H226 lung is 39.4 µM; in the assay on HCT-116 colon it was 23.6 µM; in the assay on MCF7 breast, 37.9 µM; in the assay on LOX IMVI melanoma, 23.7 µM; in the assay on SR leukemia, 10.8 µM; in the assay on 786-0 renal, 25.7 µM. Besides, the TGI stood at 7.31 µM with NCI/ADR-RES ovarian, 19 µM with RPMI-8226 leukemia, 15.3 µM in the assay on HT29 colon and 48.8 µM in the assay on ACHN renal.

In the case of `Nc1ccc2c(c1)NCCN2`, the TGI in the assay with NCI-H226 lung is 52.2 µM; in the assay with HCT-116 colon it was more than 100 µM; in the assay with MCF7 breast it was more than 100 µM; with LOX IMVI melanoma, more than 100 µM; in the assay on SR leukemia, more than 100 µM; with 786-0 renal it was more than 100 µM. Also, the TGI with NCI/ADR-RES ovarian, with RPMI-8226 leukemia, in the assay on HT29 colon and with ACHN renal was more than 100 µM each time.

Consider `Cc1cc(C)c(C[N+](C)(C)C)c(C)c1C`, for which the GI50 was 0.565 µM with NCI-H226 lung; 320 nM in the assay with HCT-116 colon; 289 nM with MCF7 breast; 306 nM in the assay with LOX IMVI melanoma; 821 nM in the assay on SR leukemia; 0.323 µM with 786-0 renal. Moreover, the GI50 in the assay on NCI/ADR-RES ovarian is 475 nM; in the assay on RPMI-8226 leukemia it was 0.588 µM; in the assay with HT29 colon, 0.388 µM; with ACHN renal, 173 nM. Also, the TGI is 11.9 µM in the assay with NCI-H226 lung; 24.8 µM in the assay on HCT-116 colon; 15.2 µM with MCF7 breast; 9.13 µM with LOX IMVI melanoma; more than 41.1 µM in the assay with SR leukemia; 13.2 µM in the assay on 786-0 renal. Moreover, the TGI in the assay on NCI/ADR-RES ovarian is 16.3 µM; in the assay with RPMI-8226 leukemia, 15.9 µM; in the assay on HT29 colon it was 17.4 µM; in the assay with ACHN renal, more than 100 µM.
